Test results as given in BindingDB's records for patent US20230286970 (Italfarmaco, 2023).

Experiments:
Test in all cases: Enzymatic Activity Assay
Histone deacetylase 8 = target: T1, Histone deacetylase 8 (Homo sapiens, UniProt Q9BY41)
T1 sequence (Q9BY41 whole entry): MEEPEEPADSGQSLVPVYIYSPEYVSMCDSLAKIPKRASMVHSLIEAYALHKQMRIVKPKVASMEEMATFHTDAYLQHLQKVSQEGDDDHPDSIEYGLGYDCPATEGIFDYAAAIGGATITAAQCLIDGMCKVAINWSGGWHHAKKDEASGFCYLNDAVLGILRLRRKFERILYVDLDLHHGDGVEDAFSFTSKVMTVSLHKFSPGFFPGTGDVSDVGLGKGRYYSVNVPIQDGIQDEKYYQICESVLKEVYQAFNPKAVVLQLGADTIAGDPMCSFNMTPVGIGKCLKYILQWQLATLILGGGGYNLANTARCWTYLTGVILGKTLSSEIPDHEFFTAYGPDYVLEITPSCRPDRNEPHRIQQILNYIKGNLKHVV
Procedure: (§1) After a period of preincubation (incubation times and temperatures vary for different isoforms and are shown in table 1) 25 μL of solution containing the substrate were added. […] Enzymatic activity on recombinant human HDAC6 and HDAC1 was evaluated (Table 2) for each synthesized compound.

Histone deacetylase 1 = Histone deacetylase 1 (Homo sapiens, UniProt Q13547)
Procedure: as §1

Histone deacetylase 9 = Histone deacetylase 9 (Homo sapiens, UniProt Q9UKV0)
Procedure: as §1

Histone deacetylase 3 = Histone deacetylase 3 (Homo sapiens, UniProt O15379)
Procedure: as §1

Histone deacetylase 4 = Histone deacetylase 4 (Homo sapiens, UniProt P56524)
Procedure: as §1

Histone deacetylase 11 = target: T2, Histone deacetylase 11 (Homo sapiens, UniProt Q96DB2)
T2 sequence (Q96DB2 whole entry): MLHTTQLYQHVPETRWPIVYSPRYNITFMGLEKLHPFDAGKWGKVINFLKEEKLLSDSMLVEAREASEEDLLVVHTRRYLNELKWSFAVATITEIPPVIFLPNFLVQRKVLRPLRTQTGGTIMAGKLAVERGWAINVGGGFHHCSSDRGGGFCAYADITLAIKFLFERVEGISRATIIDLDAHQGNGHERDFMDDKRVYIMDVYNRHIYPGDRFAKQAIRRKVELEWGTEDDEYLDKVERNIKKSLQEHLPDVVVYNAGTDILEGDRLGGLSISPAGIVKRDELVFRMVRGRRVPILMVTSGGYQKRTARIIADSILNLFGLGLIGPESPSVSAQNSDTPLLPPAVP
Procedure: as §1

Histone deacetylase 6 = target: T3, Histone deacetylase 6 (Homo sapiens, UniProt Q9UBN7)
T3 sequence (Q9UBN7 whole entry): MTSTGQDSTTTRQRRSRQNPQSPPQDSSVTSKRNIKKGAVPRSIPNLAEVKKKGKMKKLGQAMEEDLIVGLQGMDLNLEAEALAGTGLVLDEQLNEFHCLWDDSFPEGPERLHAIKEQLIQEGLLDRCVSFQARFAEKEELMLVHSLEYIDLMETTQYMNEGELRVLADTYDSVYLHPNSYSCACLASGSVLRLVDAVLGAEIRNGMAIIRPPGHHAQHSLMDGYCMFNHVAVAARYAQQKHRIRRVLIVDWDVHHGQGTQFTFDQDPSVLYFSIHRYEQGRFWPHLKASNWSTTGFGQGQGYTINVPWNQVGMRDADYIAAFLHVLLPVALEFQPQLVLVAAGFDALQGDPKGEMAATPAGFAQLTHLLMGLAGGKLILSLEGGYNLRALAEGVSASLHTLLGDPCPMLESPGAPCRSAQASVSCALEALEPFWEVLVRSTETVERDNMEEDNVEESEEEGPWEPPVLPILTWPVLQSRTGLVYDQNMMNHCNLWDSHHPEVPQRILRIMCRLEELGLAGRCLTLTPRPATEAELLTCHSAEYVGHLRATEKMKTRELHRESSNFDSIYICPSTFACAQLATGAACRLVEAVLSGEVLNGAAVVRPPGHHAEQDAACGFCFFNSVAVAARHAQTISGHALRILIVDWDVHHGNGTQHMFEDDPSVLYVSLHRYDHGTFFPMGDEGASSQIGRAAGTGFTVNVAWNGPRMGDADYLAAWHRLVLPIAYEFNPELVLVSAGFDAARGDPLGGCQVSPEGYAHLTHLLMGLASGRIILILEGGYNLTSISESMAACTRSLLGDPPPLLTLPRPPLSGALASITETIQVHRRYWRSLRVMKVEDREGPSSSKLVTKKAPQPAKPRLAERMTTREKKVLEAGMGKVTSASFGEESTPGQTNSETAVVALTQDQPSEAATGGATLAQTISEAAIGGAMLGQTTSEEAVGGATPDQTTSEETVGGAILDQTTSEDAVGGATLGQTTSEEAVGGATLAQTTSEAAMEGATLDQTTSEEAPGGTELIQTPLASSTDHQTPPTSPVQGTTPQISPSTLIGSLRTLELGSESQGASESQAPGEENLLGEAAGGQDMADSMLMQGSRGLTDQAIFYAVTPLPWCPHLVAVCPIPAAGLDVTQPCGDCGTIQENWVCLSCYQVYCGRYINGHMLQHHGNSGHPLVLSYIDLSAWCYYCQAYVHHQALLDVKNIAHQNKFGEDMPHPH
Procedure: as §1

[1] = target: T4, Polyamine deacetylase HDAC10 (Homo sapiens, UniProt Q969S8)
T4 sequence (Q969S8 whole entry): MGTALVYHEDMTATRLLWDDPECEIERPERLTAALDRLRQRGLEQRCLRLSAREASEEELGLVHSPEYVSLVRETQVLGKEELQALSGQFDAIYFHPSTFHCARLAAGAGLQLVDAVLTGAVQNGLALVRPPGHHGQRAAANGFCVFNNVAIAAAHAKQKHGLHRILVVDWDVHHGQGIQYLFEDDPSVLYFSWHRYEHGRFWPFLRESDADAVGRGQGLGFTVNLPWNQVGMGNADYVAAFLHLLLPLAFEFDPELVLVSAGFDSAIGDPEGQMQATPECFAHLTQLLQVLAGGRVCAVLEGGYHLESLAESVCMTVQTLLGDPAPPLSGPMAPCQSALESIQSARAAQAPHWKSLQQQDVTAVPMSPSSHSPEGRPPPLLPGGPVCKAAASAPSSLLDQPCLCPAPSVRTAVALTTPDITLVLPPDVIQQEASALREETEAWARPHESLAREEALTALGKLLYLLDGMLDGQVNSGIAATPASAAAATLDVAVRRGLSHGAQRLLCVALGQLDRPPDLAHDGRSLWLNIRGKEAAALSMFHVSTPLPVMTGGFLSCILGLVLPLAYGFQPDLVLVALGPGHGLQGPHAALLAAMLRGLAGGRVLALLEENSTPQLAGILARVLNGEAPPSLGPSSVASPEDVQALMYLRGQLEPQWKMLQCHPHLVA
Procedure: as §1

Sequence of Histone deacetylase 9 (Q9UKV0 whole entry): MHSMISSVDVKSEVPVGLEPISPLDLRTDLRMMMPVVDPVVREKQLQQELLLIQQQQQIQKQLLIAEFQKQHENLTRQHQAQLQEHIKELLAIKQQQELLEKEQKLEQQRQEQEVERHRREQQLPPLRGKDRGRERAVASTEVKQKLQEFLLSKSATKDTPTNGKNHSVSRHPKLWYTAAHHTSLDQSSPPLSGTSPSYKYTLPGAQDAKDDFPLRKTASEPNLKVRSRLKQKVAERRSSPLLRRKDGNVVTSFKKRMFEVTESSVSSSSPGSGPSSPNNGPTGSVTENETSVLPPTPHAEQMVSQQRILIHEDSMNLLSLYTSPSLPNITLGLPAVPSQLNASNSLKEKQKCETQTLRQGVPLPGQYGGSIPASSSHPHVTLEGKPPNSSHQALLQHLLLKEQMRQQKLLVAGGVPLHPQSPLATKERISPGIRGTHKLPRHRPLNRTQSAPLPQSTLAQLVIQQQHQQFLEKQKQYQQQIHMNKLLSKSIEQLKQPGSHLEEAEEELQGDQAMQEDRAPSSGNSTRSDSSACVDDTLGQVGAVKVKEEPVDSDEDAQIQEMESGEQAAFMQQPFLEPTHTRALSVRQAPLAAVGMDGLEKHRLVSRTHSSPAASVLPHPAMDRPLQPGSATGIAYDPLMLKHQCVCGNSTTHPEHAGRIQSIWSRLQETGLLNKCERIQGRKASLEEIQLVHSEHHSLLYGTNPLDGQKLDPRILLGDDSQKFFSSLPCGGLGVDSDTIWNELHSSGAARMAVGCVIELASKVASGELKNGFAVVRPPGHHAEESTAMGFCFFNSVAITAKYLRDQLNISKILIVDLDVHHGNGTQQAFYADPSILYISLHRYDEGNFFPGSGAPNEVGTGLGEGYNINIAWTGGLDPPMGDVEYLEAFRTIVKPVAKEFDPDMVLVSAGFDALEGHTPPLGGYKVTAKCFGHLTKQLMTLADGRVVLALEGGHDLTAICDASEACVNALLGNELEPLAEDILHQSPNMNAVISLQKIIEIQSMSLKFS
Sequence of Histone deacetylase 3 (O15379 whole entry): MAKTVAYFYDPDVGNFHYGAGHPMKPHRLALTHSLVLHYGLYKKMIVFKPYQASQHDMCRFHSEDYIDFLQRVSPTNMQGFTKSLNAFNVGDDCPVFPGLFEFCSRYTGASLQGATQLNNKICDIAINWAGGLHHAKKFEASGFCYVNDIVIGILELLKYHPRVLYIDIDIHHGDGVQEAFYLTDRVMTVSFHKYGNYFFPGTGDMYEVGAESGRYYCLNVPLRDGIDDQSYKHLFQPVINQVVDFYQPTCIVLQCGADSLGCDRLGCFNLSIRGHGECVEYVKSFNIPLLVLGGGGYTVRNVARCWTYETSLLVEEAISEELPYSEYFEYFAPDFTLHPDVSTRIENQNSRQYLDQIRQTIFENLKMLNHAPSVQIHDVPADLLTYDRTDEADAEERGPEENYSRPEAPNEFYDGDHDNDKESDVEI
Sequence of Histone deacetylase 1 (Q13547 whole entry): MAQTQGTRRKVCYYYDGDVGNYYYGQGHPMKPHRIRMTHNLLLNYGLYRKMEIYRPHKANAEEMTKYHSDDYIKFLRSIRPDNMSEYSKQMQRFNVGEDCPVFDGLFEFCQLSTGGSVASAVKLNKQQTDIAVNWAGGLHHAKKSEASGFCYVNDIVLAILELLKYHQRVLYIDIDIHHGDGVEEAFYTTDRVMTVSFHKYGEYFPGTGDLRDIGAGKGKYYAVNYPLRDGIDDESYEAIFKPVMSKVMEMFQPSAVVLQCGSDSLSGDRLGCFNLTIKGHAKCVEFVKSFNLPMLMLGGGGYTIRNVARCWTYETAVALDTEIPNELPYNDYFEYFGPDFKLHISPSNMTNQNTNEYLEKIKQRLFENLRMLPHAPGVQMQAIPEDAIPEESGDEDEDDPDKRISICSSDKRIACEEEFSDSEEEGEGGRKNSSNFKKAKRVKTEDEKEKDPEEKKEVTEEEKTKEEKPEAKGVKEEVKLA
Sequence of Histone deacetylase 4 (P56524 whole entry): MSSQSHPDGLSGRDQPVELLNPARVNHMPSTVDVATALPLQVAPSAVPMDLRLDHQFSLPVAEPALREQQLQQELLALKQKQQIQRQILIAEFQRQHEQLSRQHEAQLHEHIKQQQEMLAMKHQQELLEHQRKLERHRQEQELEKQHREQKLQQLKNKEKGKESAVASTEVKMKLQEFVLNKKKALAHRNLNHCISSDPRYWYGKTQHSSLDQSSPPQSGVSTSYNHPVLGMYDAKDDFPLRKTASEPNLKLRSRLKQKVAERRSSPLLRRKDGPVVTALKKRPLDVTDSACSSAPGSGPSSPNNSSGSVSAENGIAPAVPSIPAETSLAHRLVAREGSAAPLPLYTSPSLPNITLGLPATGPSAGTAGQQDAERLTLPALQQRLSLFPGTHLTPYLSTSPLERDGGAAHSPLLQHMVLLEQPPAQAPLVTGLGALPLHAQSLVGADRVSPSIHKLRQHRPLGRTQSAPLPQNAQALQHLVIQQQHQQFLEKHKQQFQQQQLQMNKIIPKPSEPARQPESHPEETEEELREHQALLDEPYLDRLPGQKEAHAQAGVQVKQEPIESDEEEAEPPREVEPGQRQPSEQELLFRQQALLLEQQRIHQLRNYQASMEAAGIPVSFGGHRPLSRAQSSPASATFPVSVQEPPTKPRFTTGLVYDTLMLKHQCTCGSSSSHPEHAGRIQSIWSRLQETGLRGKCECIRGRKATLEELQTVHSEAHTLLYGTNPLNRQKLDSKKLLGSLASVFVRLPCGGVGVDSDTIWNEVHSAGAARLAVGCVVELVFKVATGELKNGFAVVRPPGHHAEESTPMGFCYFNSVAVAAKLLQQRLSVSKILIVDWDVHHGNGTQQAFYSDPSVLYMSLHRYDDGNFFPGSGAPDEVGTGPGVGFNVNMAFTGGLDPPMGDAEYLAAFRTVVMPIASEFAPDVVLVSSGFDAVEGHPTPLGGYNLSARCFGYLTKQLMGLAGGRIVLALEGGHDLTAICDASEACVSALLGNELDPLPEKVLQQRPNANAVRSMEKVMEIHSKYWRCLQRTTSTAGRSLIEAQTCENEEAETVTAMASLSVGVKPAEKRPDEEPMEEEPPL

Compound | IC50 (Histone deacetylase 8) | IC50 (Histone deacetylase 1) | IC50 (Histone deacetylase 9) | IC50 (Histone deacetylase 3) | IC50 (Histone deacetylase 4) | IC50 (Histone deacetylase 11) | IC50 (Histone deacetylase 6) | IC50 [1]
Nc1nc2ccc(-c3cn(Cc4ccc(-c5nnc(C(F)F)o5)cc4)nn3)cc2s1 [US20230286970, Compound 14] | > 200 µM | > 200 µM | > 30 µM | > 30 µM | > 30 µM | > 30 µM | 0.025 µM | > 30 µM
Nc1ccc(-c2cn(Cc3ccc(-c4nnc(C(F)F)o4)c(F)c3)nn2)cn1 [US20230286970, Compound 15] | > 200 µM | > 200 µM | > 30 µM | > 30 µM | > 30 µM | > 30 µM | 0.026 µM | > 30 µM
